# According to patent publication US6528049B2, “Bisexual attractants, aggregants and arrestants for adults and larvae of codling moth and other species of lepidoptera” (Trece, Inc., priority 1999, dated 2003):
# Legend:
# Format in all cases: in vivo, Cydia pomonella
# codling moth [1] = assay: Inherent attractancy field test of HPV blends in baited sticky traps in walnut orchard; conditions: walnut orchard, blends 10 mg/white septa, ethyl (2E,4Z)-2,4-decadienoate 5 mg
# Method: The blends listed in Table 2 were then field tested in walnut orchards for their attractancy to male and female codling moths, and also for enhancement with synthetic codling moth pheromone and other additives identified above. Their total capture (both males and females), and their individual male and female capture were determined and results obtained, were compared to insect capture obtained with purified individual ester, compound #25 namely ethyl (2E,4Z)-2,4-decadienoate, and to the codling moth male sex pheromone compound #26 in Table 3.
# Individual blends containing representative aldehyde, alcohol, ester, monoterpene or sesquiterpene blends were provided in the traps in 10 mg/white septa.
# Individual host-plant volatile (HPV) blends identified by the #1-23 in Table 3 were tested for codling moth attractancy in a walnut orchard, and the results were compared to the isolated purified ethyl (2E,4Z)-2,4-decadienoate (#25), to pheromone (#26) and to solvent controls (#24).
# Twenty-five HPV blends and eight individual compounds were field tested. One synthetic blend, “ester blend #10,” elicited excellent codling moth attraction. In field tests, the other tested blends (see Table 3) and compounds captured no moths over a three month period, except for an “apple-skin surface extract” (Golden Delicious, ether solvent) (Σ=3 codling moth captured, 1♂: 2♀♀) and the individual compound, (E,E)-α-farnesene (Σ=1♂ codling moth captured). The field tests are presented in Table 3 and show attraction specificity for HPV ester blend #10.
# Sticky traps (ICP and IIB traps, Trécé, Inc. Salinas, Calif.) were baited with either extracts, blends of HPVs, or individual HPVs (>95% purity) that evaporated from impregnated rubber septa. HPV blends, or individual HPV compounds, were diluted in hexane and pipetted onto rubber septa at approximate doses of 10 mg/septum. A single treatment septum was placed in each sticky wing-trap, and hung approximately six meters high in the outer walnut canopy. Trap liners and treatment HPV septa were replaced every 10-14 days and pheromone septa every month and tests were conducted throughout two summers.
# A replicated series of different HPV treatment traps, control “blank” (unbaited) trap, and a commercial pheromone-baited trap (Trécé, Inc.) were distributed 5 trees apart throughout two distant Hartley walnut orchards and validated in 12 walnut orchards. The orchards were distinct, with one using three summer insecticide sprays and the other had no spraying. Thus, these test orchards had low vs. moderate relative populations of codling moths. Significant effects on the gender of codling moths captured were judged by paired tests, either T-test or a nonparametric test.
# codling moth [2] = assay: Trap capture in a pheromone mating disruption treated walnut orchard; conditions: 10 mg/lure, FIG. 6
# Method: FIG. 6 illustrates total capture of codling moth males and females, in a mating disruption treated orchard by using pheromone lures (-▴-) and by using lures containing ethyl (2E,4Z)-2,4-decadienoate (-♦-) (10 mg/lure)
# [3] = tested on: first-instar or neonate larval worms of the codling moth; assay: Dual-choice larval orientation bioassay in petri dishes
# Method: Behavioral orientation responses in the laboratory of first-instar or neonate larval worms of the codling moth are seen in Table 16. Data shown in Table 16 represents means of to 50 bioassay replications using five neonates per experiment conducted in small areas (10 cm diameter petri dishes). Experiments were dual-choice tests, where the released neonate larvae crawled and made perceptual choices between two small (one cm diameter) filter paper discs, with one disk treated with 1 ug or 10 ug of ethyl (2E,4Z) decadienoate and the other disc treated with an equivalent volume of solvent (methylene chloride).
# codling moth [4] = assay: Low loading dose response trap study (FIG. 13); conditions: loading doses 0.1 μg to 10 mg in grey septa
# Method: In this study, both males (-Δ-) and females (-□-) responded to a threshold dose of less than 10 μg of the ester attractant, while at progressively higher loading rates females were more responsive than males.
# codling moth [5] = assay: Sticky traps baited with the single compound or pheromone
# From the text: FIG. 5 illustrates mean attraction of female and male codling moths to sticky traps baited with a single host plant volatile, ethyl (2E,4Z)-2,4-decadienoate. The attraction was followed over a two month period.
# codling moth [6] = assay: Trap capture with proportional mixes of ethyl 2,4-decadienoate isomers; conditions: 1 mg dose/gray septum
# Method: Additionally, studies were performed to determine the attraction of codling moth to proportional mixes of (2E,4Z) and (2E,4E) isomers of ethyl 2,4-decadienoate and highly purified samples of each. Traps were baited with 1 mg dose/gray septum.
# codling moths = assay: Effect of sample purity on trap capture
# Method: Additional purification procedures were conducted to show the differences and superiority of purified pear and apple volatiles over commercially available products. For that purpose, extracts were purified from commercially available compounds, typically available in only about 80-85% purity, to a purity between 90-100%, preferably over 98% purity. As the purity of the sample of ethyl (2E,4Z)-2,4-decadienoate increased so also did its attractancy to codling moths. For example, the mean captures (±SEM) were 4.5 (±2.0) for an 86% pure sample, 6.5 (±4.4) for a 93.6% pure sample and 9.3 (±3.2) for 98.8% pure sample.
# codling moth [7] = assay: Field study of individual alcohols, aldehydes and esters; conditions: individual compounds typically of purity 90-98%
# From the text: Attractive activity of these compounds for male and female codling moth was compared to purified ethyl (2E,4Z)-2,4-decadienoate.
# When the cumulative evaluation of all studied compounds and/or blends containing aldehyde, alcohol, ester and terpene compounds was made, the following results clearly confirmed the findings seen in Table 3.
# [8] = five neonates per experiment, disc with 1 ug or 10 ug vs solvent disc
# [9] = Table 15, sticky trap, 3 traps, 43 trap checks (pheromone: 1 trap, 19 trap checks)
smiles,measurement,setting,value
"CCCCC/C=C\C=C\C(=O)OCC [Ethyl (2E,4Z)-2,4-Decadienoate, ethyl (2E,4Z)-2,4-decadienoate]",FEMALE CM Captured with HPV; ♀♀/trap night ± SEM,codling moth [1],2.04 ± 0.85 ♀♀/trap night
same,MALE CM Captured with HPV; ♂♂/trap/night ± SEM,codling moth [1],1.42 ± 0.59 ♂♂/trap/night
same,Total CM Captured with HPV: (CM/trap/night ± SEM),codling moth [1],3.46 ± 1.44 CM/trap/night
same,Total CM Captured with HPV: (CM/trap/night ± SEM),codling moth [1]; listed as #25,3.46 CM/trap/night
same,number of codling moths captured relative to lures with pheromone only,codling moth [2],more than double
same,Arrestment; average time (sec) on or under disc:,[3]; 1 ug dose of attractant,19.7 ± 5.6 s
same,Arrestment; average time (sec) on or under disc:,[3]; 10 ug dose of attractant,33.0 ± 10.7 s
same,Attraction; average number of neonates contacting disc: x ± SEM,[3]; [8],4.5 ± 0.9
same,Latency: average time (sec) to first arrive at disc: x ± SEM,[3]; [8],74.5 ± 16.1 s
same,threshold dose to which males and females responded,codling moth [4],less than 10 μg
same,Female Capture: Sum:,"codling moth [5]; Table 15, sticky trap",76.4 Moths/Trap/Night
same,Male Capture: Sum:,"codling moth [5]; Table 15, sticky trap",24.9 Moths/Trap/Night
same,Female Capture: Mean ± SEM,codling moth [5]; [9],1.78 ± 0.45 Moths/Trap/Night
same,Male Capture: Mean ± SEM,codling moth [5]; [9],0.58 ± 0.12 Moths/Trap/Night
same,attractiveness relative to pheromone,"codling moth [5]; sticky traps, two month period",approximately 48%
same,Female CM Captured ♀♀/trap/night ± SEM,codling moth [6],0.76 ± 0.10 ♀♀/trap/night
same,MALE CM Captured: ♂♂/trap/night ± SEM,codling moth [6],0.62 ± 0.29 ♂♂/trap/night
same,Total CM Captured: CM/trap ± SEM,codling moth [6],1.38 ± 0.37 CM/trap
same,mean captures (±SEM),codling moths; 86% pure sample,4.5 (±2.0)
same,mean captures (±SEM),codling moths; 93.6% pure sample,6.5 (±4.4)
same,mean captures (±SEM),codling moths; 98.8% pure sample,9.3 (±3.2)
same,attractancy to male and female codling moth (in words),codling moth [7],most active
